The values below come from patent publication US4869904A, “Sustained release drug preparation” (Nisshin Flour Milling Co., Ltd., priority 1986, dated 1989).

A short description of the data set: Dissolution and release of powder samples in water (FIG. 2). It is filed as physicochemical. Conditions: alone. As to the method:
The formation of an inclusion complex of a medical compound with an alkylated cyclodextrin derivative in accordance with the process described above was confirmed by various methods such as powder X-ray diffraction, dissolution behavior, scanning electron microscope analysis, differential thermal analysis (DTA) and infrared absorption (IR). Inclusion complexes were prepared using diltiazem hydrochloride as an exemplary medical compound, and the behavior of dissolution and release of diltiazem from the inclusion complex in the powder form, as well as the behavior of dissolution and release of diltiazem from compressed tablets containing the inclusion complex were determined in order to confirm the complexing reaction and to evaluate the sustained release property, respectively. Further, the inclusion complex was administered orally to rats, and changes in the plasma concentration of the medical compound were then measured. While taking the determined dissolution and release behavior of the diltiazem into parallel consideration, the achievement of the sustained release property of the inclusion complex was confirmed. It was also proven that the dissolution and release rate of the medical compound, diltiazem, could be controlled at will, by using the ethylated cyclodextrins as the host compound for formation of inclusion complexes. […]

Where a name gives a salt, the structure may show the parent alone.

Regarding `COc1ccc([C@@H]2Sc3ccccc3N(CCN(C)C)C(=O)[C@@H]2OC(C)=O)cc1` [diltiazem hydrochloride], the “time to dissolution in water to an extent of 100%” value is reported as “about 5 minutes”.
